Strand notation (5' to 3'): a small letter for the sugar, then the base; units joined by * are phosphorothioate-linked, units joined directly phosphodiester-linked; [ ] holds rarer units or linkages, { } end groups; capitals alone tell only the bases. k = constrained ethyl (cEt); [5mC] = 5-methylcytosine; d = 2'-deoxy (DNA)

The text below walks through data of US10517889B2, “Modulators of SMAD7 expression” (Ionis Pharmaceuticals, Inc., priority 2017, dated 2019).

The subject of the first data set is human SMAD7 mRNA. Description: Antisense inhibition of human SMAD7 mRNA expression in Hep3B cells by 3-10-3 cEt gapmers, 10,000 nM, electroporation (Example 2). The note with it: Hep3B cells, electroporation with 10,000 nM antisense oligonucleotide, approximately 24 hours, RTS5062, percent inhibition of SMAD7 mRNA relative to untreated control cells. The data set is classed as cell-based. The procedure, abridged: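 Hep3B cells (20,000 per well) were electroporated with 10,000 nM 16-mer 3-10-3 cEt gapmer (phosphorothioate, 5-methylcytosine). After about 24 h, SMAD7 mRNA was quantified by qRT-PCR with primer probe set RTS5062, normalised to RIBOGREEN total RNA, and expressed as percent inhibition versus untreated cells.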
What is called % Inhibition is the percentage by which the read-out fell short of the control. On to “799272 (antisense kA*kT*kT*dA*d[5mC]*dT*d[5mC]*dG*dA*dG*dT*d[5mC]*dA*kG*kG*k[5mC]) [compound 799272]”, for which the “% Inhibition” value worked out at 55%.
“799273 (antisense kA*kT*k[5mC]*dA*dT*dT*dA*d[5mC]*dT*d[5mC]*dG*dA*dG*kT*k[5mC]*kA) [compound 799273]”: the “% Inhibition” value was determined as 41%.
Still for that read-out and setting: for “799274 (antisense kT*kT*kA*dA*dT*d[5mC]*dA*dT*dT*dA*d[5mC]*dT*d[5mC]*kG*kA*kG) [compound 799274]” the value was 24%.
Regarding “799275 (antisense k[5mC]*kA*kG*dT*dT*dA*dA*dT*d[5mC]*dA*dT*dT*dA*k[5mC]*kT*k[5mC]) [compound 799275]”, the “% Inhibition” value was found to be 0%.
On the same count and under the same terms, the same measure for “799276 (antisense kG*kG*k[5mC]*dA*dG*d[5mC]*d[5mC]*dA*dG*dT*dT*dA*dA*kT*k[5mC]*kA) [compound 799276]”: 29%; for “799277 (antisense k[5mC]*kT*k[5mC]*d[5mC]*dG*dG*dG*d[5mC]*dA*dG*d[5mC]*d[5mC]*dA*kG*kT*kT) [compound 799277]”: 21%; for “799278 (antisense k[5mC]*k[5mC]*k[5mC]*dG*dT*d[5mC]*dT*dG*dG*dG*d[5mC]*dT*d[5mC]*k[5mC]*kG*kG) [compound 799278]”: 14%.
Take “799279 (antisense kA*k[5mC]*k[5mC]*dT*dT*dG*dT*d[5mC]*dA*d[5mC]*d[5mC]*d[5mC]*dG*kT*k[5mC]*kT) [compound 799279]”: the “% Inhibition” value amounted to 48%.
As for “799289 (antisense kT*kA*kT*dT*dA*dA*dT*dG*dG*dT*d[5mC]*dT*dG*k[5mC]*kT*k[5mC]) [compound 799289]”, the “% Inhibition” value is 61%.
Turning to “799290 (antisense kG*kA*kT*dT*dA*dT*dT*dA*dA*dT*dG*dG*dT*k[5mC]*kT*kG) [compound 799290]”, the “% Inhibition” value worked out at 16%.
“799291 (antisense kG*k[5mC]*kT*dG*dA*dT*dT*dA*dT*dT*dA*dA*dT*kG*kG*kT) [compound 799291]”: the “% Inhibition” value was 0%.
In the case of “799292 (antisense kT*kG*kA*dT*dG*d[5mC]*dT*dG*dA*dT*dT*dA*dT*kT*kA*kA) [compound 799292]”, the “% Inhibition” value was found to be 19%.
With “799293 (antisense k[5mC]*k[5mC]*kT*dT*dG*dA*dT*dG*d[5mC]*dT*dG*dA*dT*kT*kA*kT) [compound 799293]”, the “% Inhibition” value is reported as 5%.
Same read-out and setting: the same measure for “799294 (antisense k[5mC]*kG*k[5mC]*dG*dG*d[5mC]*d[5mC]*dT*dT*dG*dA*dT*dG*k[5mC]*kT*kG) [compound 799294]”: 13%; for “799295 (antisense kG*kA*k[5mC]*dT*d[5mC]*dG*d[5mC]*dG*dG*d[5mC]*d[5mC]*dT*dT*kG*kA*kT) [compound 799295]”: 30%.

Still in this data set, the particulars now being: Hep3B cells, electroporation with 10,000 nM antisense oligonucleotide, approximately 24 hours, SMAD7 mRNA by RT-PCR (RTS5062), relative to untreated control cells.
For the substance “799252 (antisense k[5mC]*kA*kA*dA*dG*dG*dT*dG*d[5mC]*dG*d[5mC]*dG*dG*k[5mC]*k[5mC]*kA) [compound 799252]”, the “% Inhibition” value is reported as 41%.
Consider “799253 (antisense k[5mC]*kT*k[5mC]*d[5mC]*dA*dA*dA*dG*dG*dT*dG*d[5mC]*dG*k[5mC]*kG*kG) [compound 799253]”, for which the “% Inhibition” value was found to be 0%.
“799254 (antisense kA*kA*kA*d[5mC]*dT*d[5mC]*d[5mC]*dA*dA*dA*dG*dG*dT*kG*k[5mC]*kG) [compound 799254]”: the “% Inhibition” value was found to be 11%.
For the substance “799255 (antisense k[5mC]*kA*kA*dA*dA*d[5mC]*dT*d[5mC]*d[5mC]*dA*dA*dA*dG*kG*kT*kG) [compound 799255]”, the “% Inhibition” value worked out at 0%.
For the substance “799256 (antisense k[5mC]*k[5mC]*kA*dA*dA*dA*d[5mC]*dT*d[5mC]*d[5mC]*dA*dA*dA*kG*kG*kT) [compound 799256]”, the “% Inhibition” value turned out to be 0%.
Still for that read-out and setting: for “799257 (antisense k[5mC]*k[5mC]*k[5mC]*d[5mC]*dA*dA*dA*dA*d[5mC]*dT*d[5mC]*d[5mC]*dA*kA*kA*kG) [compound 799257]” the value was 27%; for “799258 (antisense kG*k[5mC]*k[5mC]*d[5mC]*d[5mC]*dA*dA*dA*dA*d[5mC]*dT*d[5mC]*d[5mC]*kA*kA*kA) [compound 799258]”, 4%; for “799259 (antisense kT*kG*k[5mC]*d[5mC]*d[5mC]*d[5mC]*dA*dA*dA*dA*d[5mC]*dT*d[5mC]*k[5mC]*kA*kA) [compound 799259]”, 45%.
Same read-out and setting: for “799260 (antisense kT*kT*kG*d[5mC]*d[5mC]*d[5mC]*d[5mC]*dA*dA*dA*dA*d[5mC]*dT*k[5mC]*k[5mC]*kA) [compound 799260]” the value was 27%.
“799261 (antisense kT*kT*kT*dG*d[5mC]*d[5mC]*d[5mC]*d[5mC]*dA*dA*dA*dA*d[5mC]*kT*k[5mC]*k[5mC]) [compound 799261]”: the “% Inhibition” value is 52%.

The same data set, now with this note: Hep3B cells, electroporation with 10,000 nM antisense oligonucleotide, approximately 24 hours, primer probe set RTS5062, relative to untreated control cells.
“799250 (antisense kT*kG*k[5mC]*dG*d[5mC]*dG*dG*d[5mC]*d[5mC]*dA*d[5mC]*dG*dA*k[5mC]*kA*kG) [compound 799250]”: the “% inhibition of SMAD7 mRNA expression” value turned out to be 21%.
The same measure, in the same setting: for “799251 (antisense kA*kG*kG*dT*dG*d[5mC]*dG*d[5mC]*dG*dG*d[5mC]*d[5mC]*dA*k[5mC]*kG*kA) [compound 799251]” the value was 37%; for “799262 (antisense k[5mC]*kT*k[5mC]*dT*dT*dT*dG*d[5mC]*d[5mC]*d[5mC]*d[5mC]*dA*dA*kA*kA*k[5mC]) [compound 799262]”, 0%.
For the substance “799263 (antisense kT*k[5mC]*k[5mC]*dA*dA*d[5mC]*dT*d[5mC]*dT*d[5mC]*dT*dT*dT*kG*k[5mC]*k[5mC]) [compound 799263]”, the “% inhibition of SMAD7 mRNA expression” value worked out at 0%.
Regarding “799264 (antisense k[5mC]*k[5mC]*kA*dT*d[5mC]*d[5mC]*dA*dA*d[5mC]*dT*d[5mC]*dT*d[5mC]*kT*kT*kT) [compound 799264]”, the “% inhibition of SMAD7 mRNA expression” value amounted to 16%.
On to “799265 (antisense k[5mC]*kT*kT*d[5mC]*d[5mC]*dA*dT*d[5mC]*d[5mC]*dA*dA*d[5mC]*dT*k[5mC]*kT*k[5mC]) [compound 799265]”, for which the “% inhibition of SMAD7 mRNA expression” value was found to be 3%.
Still for that read-out and setting: the same measure for “799266 (antisense kG*kG*k[5mC]*d[5mC]*dT*dT*d[5mC]*d[5mC]*dA*dT*d[5mC]*d[5mC]*dA*kA*k[5mC]*kT) [compound 799266]”: 37%; for “799267 (antisense kG*kT*kT*d[5mC]*dG*dG*d[5mC]*d[5mC]*dT*dT*d[5mC]*d[5mC]*dA*kT*k[5mC]*k[5mC]) [compound 799267]”: 62%.

The same data set, now with this note: Hep3B cells, electroporation, 10,000 nM antisense oligonucleotide, approximately 24 hours, RTS5062, relative to untreated control cells.
“799270 (antisense kA*kG*kT*d[5mC]*dA*dG*dG*d[5mC]*dT*d[5mC]*dA*dA*dT*kG*kA*kG) [compound 799270]”: the “% inhibition of SMAD7 mRNA expression” value is 16%.
The same measure, in the same setting: the same measure for “799271 (antisense k[5mC]*kT*k[5mC]*dG*dA*dG*dT*d[5mC]*dA*dG*dG*d[5mC]*dT*k[5mC]*kA*kA) [compound 799271]”: 60%; for “799280 (antisense kA*kG*k[5mC]*dA*d[5mC]*d[5mC]*dT*dT*dG*dT*d[5mC]*dA*d[5mC]*k[5mC]*k[5mC]*kG) [compound 799280]”: 44%; for “799281 (antisense k[5mC]*kA*k[5mC]*dA*dG*d[5mC]*dA*d[5mC]*d[5mC]*dT*dT*dG*dT*k[5mC]*kA*k[5mC]) [compound 799281]”: 25%.
On to “799282 (antisense kA*k[5mC]*kA*dG*dA*d[5mC]*d[5mC]*dA*d[5mC]*dA*dG*d[5mC]*dA*k[5mC]*k[5mC]*kT) [compound 799282]”, for which the “% inhibition of SMAD7 mRNA expression” value is on record as 16%.
Turning to “799283 (antisense kA*kA*kG*dA*d[5mC]*dA*dG*dA*d[5mC]*d[5mC]*dA*d[5mC]*dA*kG*k[5mC]*kA) [compound 799283]”, the “% inhibition of SMAD7 mRNA expression” value is on record as 34%.
As to “799284 (antisense k[5mC]*kG*kT*dA*dA*dG*dA*d[5mC]*dA*dG*dA*d[5mC]*d[5mC]*kA*k[5mC]*kA) [compound 799284]”, the “% inhibition of SMAD7 mRNA expression” value amounted to 51%.
Regarding “799285 (antisense kG*kG*k[5mC]*dT*dT*d[5mC]*dA*d[5mC]*dT*dG*d[5mC]*d[5mC]*d[5mC]*kA*kT*k[5mC]) [compound 799285]”, the “% inhibition of SMAD7 mRNA expression” value worked out at 36%.
Turning to “799286 (antisense kG*k[5mC]*kT*d[5mC]*dA*dG*dG*d[5mC]*dT*dT*d[5mC]*dA*d[5mC]*kT*kG*k[5mC]) [compound 799286]”, the “% inhibition of SMAD7 mRNA expression” value is on record as 0%.
In the case of “799287 (antisense kT*k[5mC]*kT*dG*d[5mC]*dT*d[5mC]*dA*dG*dG*d[5mC]*dT*dT*k[5mC]*kA*k[5mC]) [compound 799287]”, the “% inhibition of SMAD7 mRNA expression” value was found to be 15%.
As to “799288 (antisense kT*kA*kA*dT*dG*dG*dT*d[5mC]*dT*dG*d[5mC]*dT*d[5mC]*kA*kG*kG) [compound 799288]”, the “% inhibition of SMAD7 mRNA expression” value is listed as 23%.

Staying with this data set, now noted: Hep3B cells, electroporation, 10,000 nM, approximately 24 hours; 3-10-3 cEt gapmers targeting SEQ ID NO: 3 and 4.
On to “799268 (antisense kT*k[5mC]*k[5mC]*dA*dG*dT*dT*d[5mC]*dG*dG*d[5mC]*d[5mC]*dT*kT*k[5mC]*k[5mC]) [compound 799268]”, for which the “% inhibition of SMAD7 mRNA expression” value is given as 24%.
Turning to “799269 (antisense kA*kG*kA*d[5mC]*dT*d[5mC]*d[5mC]*dA*dG*dT*dT*d[5mC]*dG*kG*k[5mC]*k[5mC]) [compound 799269]”, the “% inhibition of SMAD7 mRNA expression” value is recorded as 20%.
